Measured values as given in article PMC8041284, “Tunable Methacrylamides for Covalent Ligand Directed Release Chemistry” (Journal of the American Chemical Society, 2021).
Read-outs that look alike come from different tables or passages of the source.

Biological target: BTK (Homo sapiens, UniProt Q06187)
Test: biochemical
[1] = read-out: BTK inhibition (%), 0.75 uM BTK, […] probe 3l, 15 min preincubation

Sequence of BTK (Q06187 402-655 limits assumed): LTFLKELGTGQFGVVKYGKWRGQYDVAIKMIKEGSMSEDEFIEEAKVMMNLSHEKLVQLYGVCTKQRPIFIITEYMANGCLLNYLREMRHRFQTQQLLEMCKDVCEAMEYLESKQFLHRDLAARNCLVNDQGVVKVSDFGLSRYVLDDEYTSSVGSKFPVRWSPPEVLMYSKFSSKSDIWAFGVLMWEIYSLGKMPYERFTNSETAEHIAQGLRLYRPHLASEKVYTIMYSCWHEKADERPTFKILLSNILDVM

inhibition at 10 µM [1] [%]	SMILES	inhibition at 10 µM (read-out: BTK inhibition (%)) [%]
2.3	CC[C@H]1[C@@H](O)[C@@H]2[C@H](CC[C@]3(C)[C@@H]([C@H](C)CCC(=O)O)CC[C@@H]23)[C@@]2(C)CC[C@@H](O)C[C@@H]12 [PCM-0215390]	
-2.8	C=CC[C@@H]1/C=C(\C)C[C@H](C)C[C@H](OC)[C@H]2O[C@@](O)(C(=O)C(=O)N3CCCC[C@H]3C(=O)O[C@H](/C(C)=C/[C@@H]3CC[C@@H](O)[C@H](OC)C3)[C@H](C)[C@@H](O)CC1=O)[C@H](C)C[C@@H]2OC [PCM-0214806]	
0.9	NC(=O)c1ncn([C@@H]2O[C@H](CO)[C@@H](O)[C@H]2O)c1O [PCM-0065422]	
-9.3	C=CC(=O)N1CC(N2CCN(C(=O)CNc3cc(C4(C)CC4)c(Cl)cc3O)CC2)C1 [PCM-0215823]	
7	COc1ccc([C@H]2CNC(=O)C2)cc1OC1CCCC1 [PCM-0095307]	
-17.1	O=C(Nc1ccccc1Br)N[C@@H]1CCN(c2ccc(C(F)(F)F)cn2)C1 [PCM-0095337]	
10.8	COc1cc2c(cc1O)[C@@H](Cc1ccc(O)c(Oc3ccc(C[C@@H]4c5cc(OC)c(OC)cc5CCN4C)cc3)c1)N(C)CC2 [PCM-0216427]	
4.6	C=C1C[C@@]23CC[C@H]4[C@@](C)(CCC[C@@]4(C)C(=O)O[C@@H]4O[C@H](CO)[C@@H](O)[C@H](O)[C@H]4O)[C@@H]2CC[C@]1(O[C@@H]1O[C@H](CO)[C@@H](O)[C@H](O)[C@H]1O)C3 [PCM-0216413]	
-28.9	CCCCCCCCCCCCCCCCOc1nc2ccc(C)cc2c(=O)o1 [PCM-0215987]	
-6.2	CCCCNc1cc(C(=O)O)cc(S(N)(=O)=O)c1Oc1ccccc1 [PCM-0064421]	
-6.2	COc1cc(CO)cc(OC)c1O [PCM-0215146]	
6.9	CCCCCCCC/C=C\CCCCCCCC(=O)OCC [PCM-0216145]	
7.6	CC/C(=C(\c1ccccc1)c1ccc(OCCN(C)C)cc1)c1ccccc1 [PCM-0064738]	
14.8	Nc1ccc(S(=O)(=O)Nc2nccs2)cc1 [PCM-0085785]	
43.6	CO[C@H]1/C=C/O[C@@]2(C)Oc3c(C)c(O)c4c(O)c(c(/C=N/N5CCN(C6CCCC6)CC5)c(O)c4c3C2=O)NC(=O)/C(C)=C\C=C\[C@H](C)[C@H](O)[C@@H](C)[C@@H](O)[C@@H](C)[C@H](OC(C)=O)[C@@H]1C [PCM-0086116]	
5.4	O=c1[nH]c2ccccc2n1CCCN1CCC(n2c(=O)[nH]c3cc(Cl)ccc32)CC1 [PCM-0065112]	
-9	CNC(=O)c1cc(Oc2ccc3nc(N[C@@H]4CCCC[C@H]4O)sc3c2)ccn1 [PCM-0215436]	
0	CCn1cc(NC(=S)Nc2cc(Cl)ccc2OC)c(C(N)=O)n1 [PCM-0215323]	
14.7	NCCCCCN [PCM-0216205]	
4.1	O=C(O)Cn1nnc(-c2cc(N3CCC(Oc4cc(F)ccc4Br)CC3)no2)n1 [PCM-0094989]	
-3.9	O=C(Oc1coc(CSc2ncccn2)cc1=O)c1ccc([N+](=O)[O-])cc1 [PCM-0216050]	
5.4	C[C@H]1O[C@@H](O[C@H]2CC[C@@]3(C)[C@@H](CC[C@]4(C)[C@@H]3C=C[C@]35OC[C@@]6(CCC(C)(C)C[C@H]63)[C@H](O)C[C@]54C)[C@]2(C)CO)[C@H](O)[C@@H](O[C@@H]2O[C@H](CO)[C@@H](O)[C@H](O)[C@H]2O)[C@H]1O [PCM-0216171]	

inhibition at 10 µM [1] [%]	SMILES	inhibition at 10 µM (read-out: BTK inhibition (%)) [%]
-23.3	OCCN1C[C@H](O)[C@@H](O)[C@H](O)[C@H]1CO [PCM-0086065]	
-6.9	CS(=O)(=O)c1ccc(-c2cnc(NCc3ccco3)n3cnnc23)cc1 [PCM-0215813]	
32.4	O=C(NN=Cc1ccc(O)c(O)c1)c1cc2ccccc2cc1O [PCM-0215235]	
-15.9	C[C@H]1[C@H](C)CC[C@]2(C(=O)O[C@@H]3O[C@H](CO[C@@H]4O[C@H](CO)[C@@H](O[C@@H]5O[C@@H](C)[C@H](O)[C@@H](O)[C@H]5O)[C@H](O)[C@H]4O)[C@@H](O)[C@H](O)[C@H]3O)CC[C@]3(C)C(=CC[C@@H]4[C@@]5(C)C[C@@H](O)[C@H](O)[C@@](C)(CO)[C@@H]5CC[C@]43C)[C@H]12 [PCM-0214874]	
3.9	COc1ccc(CCO[C@@H]2O[C@H](CO[C@@H]3OC[C@H](O)[C@H](O)[C@H]3O)[C@@H](OC(=O)/C=C/c3ccc(O)c(OC)c3)[C@H](O[C@@H]3O[C@@H](C)[C@H](O)[C@@H](O)[C@H]3O)[C@H]2O)cc1O [PCM-0216311]	
94.5	NC(=O)c1cnc2[nH]ccc2c1NC1[C@@H]2CC3C[C@H]1CC(O)(C3)C2 (some centres unmarked) [PCM-0215550]	
-5.4	O=C(C1CCCCC1)N1CC(=O)N2CCc3ccccc3C2C1 (centres unmarked) [PCM-0064807]	
2.3	COc1cn(-c2ccc(-n3cccn3)cc2F)nc(-c2ccnn2-c2ccccc2)c1=O [PCM-0215765]	
10.9	CN(C)CC/C=C1/c2ccccc2Sc2ccc(Cl)cc21 [PCM-0095101]	
17.9	CNCc1ccc(-c2cc(-c3nc(-c4ccc(S(=O)(=O)C(C)C)cc4)cnc3N)on2)cc1 [PCM-0213360]	
44.1	CNC(=O)c1nn(C)c2c1C(C)(C)Cc1cnc(Nc3ccc(N4CCN(C)CC4)cc3)nc1-2 [PCM-0095492]	
-15.9	CS(=O)(=O)N1CCN(Cc2cc3nc(-c4cccc5[nH]ncc45)nc(N4CCOCC4)c3s2)CC1 [PCM-0094994]	
106	O=C(NC(NC(=S)Nc1ccc(F)c([N+](=O)[O-])c1)C(Cl)(Cl)Cl)C(c1ccccc1)c1ccccc1 (centres unmarked) [PCM-0215199]	
-13.2	CC[C@H]1OC(=O)[C@H](C)[C@@H](O[C@H]2C[C@@](C)(OC)[C@@H](O)[C@H](C)O2)[C@H](C)[C@@H](O[C@@H]2O[C@H](C)C[C@H](N(C)C)[C@H]2O)[C@](C)(O)C[C@@H](C)CN[C@H](C)[C@@H](O)[C@]1(C)O [PCM-0215099]	
-0.8	CN(C)CCc1c[nH]c2ccc(CS(=O)(=O)N3CCCC3)cc12 [PCM-0090415]	
-63.8	COc1ccc(CNc2nc(N3CCC[C@H]3CO)ncc2C(=O)NCc2ncccn2)cc1Cl [PCM-0095565]	
	O=C(O)CCCCCCCCCO [PCM-0216560]	14.7
3.9	COc1cc2c(cc1OC)[C@@H]1Cc3ccc(OC)c(OC)c3CN1CC2 [PCM-0094863]	
-17	NC(N)=NCCCC(N)C(=O)O (centres unmarked) [PCM-0064685]	
9.7	Nc1ccccc1NC(=O)c1ccc(CNC(=O)OCc2cccnc2)cc1 [PCM-0094980]	
3.4	CC(C)OC(=O)C1=CN(C(=O)c2ccc(F)c(F)c2)CC(C)(C)c2c1[nH]c1ccccc21 [PCM-0095387]	
-2.1	CC(C)Oc1ccc(-c2nn([C@@H](C)c3oc4ccc(F)cc4c(=O)c3-c3cccc(F)c3)c3ncnc(N)c23)cc1F [PCM-0215802]	

inhibition at 10 µM [1] [%]	SMILES	inhibition at 10 µM (read-out: BTK inhibition (%)) [%]
5.5	COc1cc2ncnc(Sc3nnc(C)s3)c2cc1OC [PCM-0215288]	
-1.4	CN(C)c1cccc(-c2c3c(=O)n(-c4ccccc4Cl)[nH]c3cc(=O)n2C)c1 [PCM-0215425]	
20.1	O=C(c1ccccc1)c1ccc2nc(NC(=O)c3csc(C4CCN(c5ncnc6ccsc56)CC4)n3)[nH]c2c1 [PCM-0095775]	
-26.4	CC(C)(C)NCC(O)c1cc(O)cc(O)c1 (centres unmarked) [PCM-0064743]	
0.8	C[C@]12CC[C@@H]3c4ccc(O)cc4CC[C@H]3[C@@H]1CC[C@@H]2OC(=O)CCC1CCCC1 [PCM-0214748]	
-16.3	NC(=O)CN1CCCC1=O [PCM-0064964]	
10.9	O=c1c(-c2ccc(O)cc2)coc2cc(O[C@@H]3O[C@H](CO)[C@@H](O)[C@H](O)[C@H]3O)ccc12 [PCM-0214779]	
48.3	Cc1ncc(-c2ccnc(Nc3ccc(S(C)(=O)=O)cc3)n2)n1C(C)C [PCM-0095478]	
-15.9	CCCCC(=O)O[C@]1(C(=O)CO)[C@@H](C)C[C@H]2[C@@H]3CCC4=CC(=O)C=C[C@]4(C)[C@@]3(F)[C@@H](O)C[C@@]21C [PCM-0095140]	
-10.1	NS(=O)(=O)c1cc2c(cc1Cl)NC=NS2(=O)=O [PCM-0064466]	
12.4	C[C@H](NC(=O)/C(C#N)=C/c1cccc(Br)n1)c1ccccc1 [PCM-0095390]	
21.6	CC(C)(C)C[C@@H]1N[C@@H](C(=O)NC2CCC(O)CC2)[C@H](c2cccc(Cl)c2F)[C@]12C(=O)Nc1cc(Cl)ccc12 (some centres unmarked) [PCM-0215450]	
11.7	COc1cc2c(c(OC)c1OC)-c1c(cc3c(c1OC)OCO3)CC(C)C(C)C2 (centres unmarked) [PCM-0214727]	
3.1	CCCc1cc(=O)[nH]c(=S)[nH]1 [PCM-0085981]	
15.2	CCC(=O)O[C@]1(C(=O)SCF)[C@H](C)C[C@H]2[C@@H]3C[C@H](F)C4=CC(=O)C=C[C@]4(C)[C@@]3(F)[C@@H](O)C[C@@]21C [PCM-0214707]	
26.2	OC[C@H]1O[C@@H](O[C@@H]2OC=C[C@H]3[C@H](O)[C@@H]4O[C@]4(CO)[C@@H]23)[C@H](O)[C@@H](O)[C@@H]1O [PCM-0215028]	
-6.2	CCOC(=O)[C@H](CCc1ccccc1)N[C@@H](C)C(=O)N1Cc2cc(OC)c(OC)cc2C[C@H]1C(=O)O [PCM-0095243]	
-13.6	NC(=O)c1ccc[n+]([C@@H]2O[C@H](COP(=O)([O-])OP(=O)(O)OC[C@H]3O[C@@H](n4cnc5c(N)ncnc54)[C@H](O)[C@@H]3O)[C@@H](O)[C@H]2O)c1 [PCM-0090146]	
-5.1	CCN(CC)c1ccc2cc(-c3nc4ccccc4s3)c(=O)oc2c1 [PCM-0215963]	
-43.6	NC(=O)c1[nH]cnc1N [PCM-0214903]	
3.9	CCCCCCCCOC(=O)c1cc(O)c(O)c(O)c1 [PCM-0216629]	
30.4	C[C@@H]1CCO[C@H]2Cn3cc(C(=O)NCc4ccc(F)cc4F)c(=O)c(O)c3C(=O)N12 [PCM-0214696]	

SMILES	inhibition at 10 µM [1] [%]	inhibition at 10 µM (read-out: BTK inhibition (%)) [%]
O=C1C=CC[C@@H]2[C@H]3CCCN4CCC[C@@H](CN12)[C@@H]34 [PCM-0094851]	13.2	
C1=C2CCCN[C@H]2[C@@H]2C[C@H]1[C@H]1CCCCN1C2 [PCM-0095306]	-2.6	
